Data taken from patent US20050233461A1, “High-throughput methods and systems for screening of compounds to treat/prevent kidney disorders” (priority 2002, published 2005).
Structures can show the parent of a compound that is named as a salt. Where two headings read alike, the source gives them in different places.

Key:
[1] = high throughput screen of components for modifying calcium oxalate crystal growth (crystal imaging)
Method: Next, the seed crystals are incubated in supersaturated calcium oxalate medium. This medium may have one or more of components for testing. Nucleation and changes in a crystal property (such as crystal growth) are detected by comparing signals obtained from a sample at different times and/or after changing the medium. For example, a signal for a sample can be taken at the beginning of incubation, and then optionally at one or more times during incubation, and then at the end of incubation. The number and time for obtaining signals from or screening a sample will depend on the particular experiment and will be readily apparent to the skilled artisan. These signals or screens of samples may be photographs of birefringent spots, the size of the spots (measured in pixels), calculations based on the pixels and their distribution in a birefringence- or plain light-based image, in-situ Raman spectroscopy to monitor growth or determine the composition of one or more crystals, signals for the concentration of component(s) in the medium, and the like.
FIG. 2 illustrates one such embodiment. Sodium oxalate and calcium chloride solutions are prepared during steps 200 and 205 respectively. Following mixing during step 210 to obtain supersaturated calcium oxalate medium, also described in FIG. 1, monitoring while incubating during step 215 detects the formation of seed crystals. Next, the medium is removed during step 220 followed by addition of fresh medium containing test components during step 225. The test component(s) are preferably added to the sodium oxalate solution used to make the medium. Alternatively, they could be added in the calcium chloride solution for making the medium, or in a separate solution, or as solids, or even mixed in, or any combination thereof.
Some processing of arrays is also seen in the method illustrated in FIG. 2. Further incubation of seed crystals during step 230 and imaging during step 235 provide data about the growth and/or nucleation of crystals. The high throughput method of FIG. 2 includes estimating a nucleation and/or growth rate from a number of birefringent spots. An increase in the nucleation rate, or observing little or no crystal growth, ascribable to a component may indicate a therapeutic use for treating diseases, conditions, or disorders associated with calculi or crystal deposition (e.g., nephrolithiasis) by reducing the average size of the crystals, stones or calculi to facilitate excretion. Alternatively, a significant decrease in the nucleation rate ascribable to a component may indicate a therapeutic use for treating diseases, conditions, or disorders associated with calculi or crystal deposition (e.g., nephrolithiasis) by decreasing the rate of stone or calculi formation.
The photograph of the illuminated crystals, e.g., obtained in step 235 of FIG. 2, may be further analyzed to estimate a number of pixels corresponding to a crystal spot.
Other properties of crystals may also be obtained from the pixel measurements in step 240 of FIG. 2. The photograph of the illuminated crystals also allows an estimate of a long and a short dimension among many possible measures. These reflect the habit of the crystal spot and may be used to predict crystals that are likely to be excreted more easily. For instance, small and even shaped crystals are more likely to be excreted than spiny crystal shapes, thus permitting high throughput screening for promising therapeutic candidates.
In FIG. 7, during step 700 one or more substances of interest are identified. […] The identified substances, added in solutions of calcium chloride or sodium oxalate, are subjected to screening via a high-throughput growth inhibitor screen during step 705. Accordingly, growth of crystals in supersaturated calcium oxalate medium is observed in the presence or absence of identified substances. Such growth may be of seed crystals or may include nucleation of crystals as well as growth.

[2] = turbidity based assay of crystal nucleation and growth in supersaturated calcium oxalate solutions; settings: FIG. 10 and FIG. 11
Description: FIG. 10 illustrates the effect of citrate on growth and nucleation of crystals in supersaturated calcium oxalate solutions as measured by turbidity at 620 nm.
FIG. 11 is an example of turbidity based assay showing crystal nucleation and growth in supersaturated calcium oxalate solutions prepared in accordance with the method of FIG. 1.
The system also includes means for preparing metastable formulations such as supersaturated solutions. In a preferred design, supersaturated media for nucleating and growing crystals are prepared by mixing two stable components to give rise to a metastable supersaturated solution. […] This supersaturated mixture may be monitored after incubation for a predetermined duration during step 115. […]
Preferably, calcium oxalate crystals are also used to seed the supersaturated calcium oxalate solution in some samples to assess their growth or the lack thereof. Absorbance at about 620 nm provides a measure of turbidity and a decrease in turbidity indicates either aggregation or crystals/precipitate or reduction in the precipitation/crystal growth of calcium oxalate crystals. It should be noted that turbidity may be measured at other wavelengths as well including wavelengths corresponding to visible light and ultraviolet light. Preferably, but not as a requirement, turbidity is measured by evaluating light scattered at an angle to the incident light. […]

[3] = supersaturated calcium oxalate, amounts and concentrations in FIGS. 9A and 9B

Compound | large (intermediate to large) crystals: number / size observed [1, 3] | overall effect on calcium oxalate crystals (number of crystals) [1, 3] | other results
NS(=O)(=O)c1cc(C(=O)O)c(NCc2ccco2)cc1Cl [furosemide, reference compound] | many more large crystals |  | 
O=C(O)C1OC(C(=O)O)C(C(=O)O)C1C(=O)O (stereo not shown) [tetrahydrofuran-2,3,4,5-tetracarboxylic acid] | reduced number of intermediate to large crystals |  | small crystals: number observed [1, 3]: increased number of small crystals
O=C([O-])[C@H](O)[C@@H](O)[C@H](O[C@@H]1O[C@H](CO)[C@H](O)[C@H](O)[C@H]1O)[C@H](O)CO.O=C([O-])[C@H](O)[C@@H](O)[C@H](O[C@@H]1O[C@H](CO)[C@H](O)[C@H](O)[C@H]1O)[C@H](O)CO.[Ca+2] [lactobionic acid hemi calcium salt] | presence of very large crystals in some wells |  | 
COc1ccc2c(c1)c(CC(=O)O)c(C)n2C(=O)c1ccc(Cl)cc1 [indomethacin, reference compound] | reduction in the number of large crystals |  | small crystals: number observed [1, 3]: little change in the number of small crystals
O=C(O)[C@H](O)[C@@H](O)[C@H](O[C@@H]1O[C@H](CO)[C@H](O)[C@H](O)[C@H]1O)[C@H](O)CO [lactobionic acid] |  | many small and large crystals | 
CCCN(CCC)S(=O)(=O)c1ccc(C(=O)O)cc1 [probenicid, reference compound] |  | little effect | small crystals: number observed [1, 3]: a few more small crystals
CN(C)c1ccc2nc3ccc(=[N+](C)C)cc-3sc2c1 [methylene blue, reference compound] | reduction in large crystals |  | 
O=C(O)C(O)c1ccc(Br)cc1 (stereo not shown) [4-bromomandelic acid] | larger sized crystals being formed |  | crystal habit / form of material observed [1, 3]: absence of plate like structures
O=C(O)CC(O)(CC(=O)O)C(=O)O [sodium citrate] |  |  | turbidity of supersaturated calcium oxalate compared to supersaturated calcium oxalate by itself ([2]; 3 mM sodium citrate, turbidity at 620 nm): dramatically reduces the turbidity; formation of calcium oxalate crystals in a supersaturated calcium oxalate solution [2]: effective, although limited, in reducing the formation of calcium oxalate crystals
atrolactic acid hemihydrate |  |  | large (intermediate to large) crystals: number / size observed [1]: reduction in large crystals
CCCCCCCCCCCCCCCCC(C(=O)O)C(O)(CC(=O)O)C(=O)O (stereo not shown) [agaric acid] |  |  | crystal habit / form of material observed [1, 3]: formation of an emulsion/suspension
CC(=O)OC[C@H]1O[C@@](COC(C)=O)(O[C@H]2O[C@H](COC(C)=O)[C@@H](OC(C)=O)[C@H](OC(C)=O)[C@H]2OC(C)=O)[C@@H](OC(C)=O)[C@@H]1OC(C)=O [sucrose octaacetate] |  | increased number (countable) of crystals | 
O=C(O)CNC(=O)c1ccccc1 [hippuric acid] |  | little effect | 
O=C(O)C(O)c1ccccc1 (stereo not shown) [mandelic acid] |  | little effect | 
